Reference: patent US7993660B2, “Method of increasing immunological effect” (IRx Therapeutics, Inc., priority 2007, dated 2011)
Where a SMILES comes first, the peptide text is derived from it. The star is where a group is joined. Cbz = O=C(OCc1ccccc1)*; CH2F = FC*

Key:
[1] = tested on: activated peripheral blood CD8+ T-lymphocytes; assay: Caspase activation (FITC-VAD-FMK staining, flow cytometry) in activated primary CD8+ T cells; assay type: cell-based, human; conditions: for inhibition of PCI-13/FasL-MV-induced apoptosis (caspase-VAD-FITC binding): CD8+, IRX-2 1:3 or IL-7, IL-15 100 ng/mL 24 hours, MV 15 μg 24 hours; for mean % of FITC-VAD-FMK+ cells ± SD: CD8+ cells, 24 hours pre-incubation (IRX-2 1:3, IL-2 100 IU/mL, IL-7/IL-15 10 ng/mL)
Description: (§1) The head and neck squamous cell carcinoma (H&NSCC) cell line […] was established in Applicants' laboratory and maintained as previously described. It was retrovirally transfected with the human FasL gene obtained from Dr. S. Nagata (Osaka Biosciences Institute, Osaka, Japan) as previously reported. Supernatants of transfected PCI-13-cells (PCI-13-FasL), which contained both sFasL and the 42 kDa membranous form of FasL, were used as a source of tumor-derived microvesicles (MV). Jurkat cells were obtained from American Tissue Culture Collection (ATCC, Manassas, Va.) and were transfected with CD8. The CD8+ Jurkat cells were cultured in RPMI 1640 medium supplemented with 10% (v/v) fetal bovine serum (FBS), L-glutamine and antibiotics. Human T lymphocytes were isolated from peripheral blood mononuclear cells (PBMC) obtained from consented normal donors. PBMC were isolated by Ficoll-Hypaque density gradient centrifugation (GE Healthcare Bio-Sciences Corp., Piscataway, N.J.), washed and plated for 1 hour at 37° C. in culture flasks (T162) in an atmosphere of 5% CO2 to remove CD14+ monocytes. The non-adherent T-lymphocyte fraction was collected and immediately used for experiments or cryopreserved. CD8+ T cells or CD4+ T cells were purified by positive selection using CD8 MicroBeads or CD4 MicroBeads, respectively (Miltenyi Biotec, Auburn, Calif.) using the AutoMACS system according to the manufacturer's instructions. Purified CD8+ or CD4+ T cells were then cultured for 2-3 days in AIM V medium supplemented with 10% FBS in the presence of beads coated with anti-CD3 and anti-CD28 antibodies (T Cell Activation/Expansion Kit, Miltenyi Biotec). All cells used for the above described experiments were in the log phase of growth.
(§2) CD8+ Jurkat cells or activated normal T lymphocytes were plated at 0.3×10^6 cells per well in a 96-well plate and pre-treated or not with IRX-2 or with recombinant human cytokines at a final concentration of 10 ng/mL or 100 IU/mL for 24 hours (unless otherwise noted). MV (10 μg protein per 0.3×10^6 cells) were then added for 3-24 hours. In some experiments, cells were first co-incubated with MV for 3-24 hours, then washed and treated further with IRX-2 or cytokines or treated for the indicated time period with MV and IRX-2 added simultaneously. In selected blocking experiments, anti-Fas neutralizing monoclonal antibody, ZB-4, the pan-caspase inhibitor, Z-VAD-FMK, or the specific Akt-inhibitor or specific inhibitors for caspase-3, caspase-8 and caspase-9 were added at the indicated concentrations prior to MV co-incubation.
(§3) Four color flow cytometry was performed using a […] (Beckman Coulter) equipped with Expo32 software (Beckman Coulter). Lymphocytes were gated based on morphology, and debris, MV as well as monocytes and granulocytes were excluded, collecting data on at least 10^5 cells. For the analysis of activated primary T lymphocytes, gates were restricted to the CD3^+CD8^+ or CD3^+CD4^+ T-cell subsets. Data was analyzed using Coulter EXPO 32vl.2 analysis software.
(§4) Total cellular Caspase activity was tested by intracellular staining of activated caspases using a pan caspase inhibitor, CASPACE FITC-VAD-FMK In Situ Marker (Promega, Madison, Wis.). Cells were resuspended in PBS and FITC-VAD-FMK was added at a final concentration of 5 μM. The cells were incubated for 20 minutes at 37° C., 5% CO2 and washed with PBS. Then cells were stained for cell surface receptors, fixed with 1% paraformaldehyde and analyzed by flow cytometry. The specific activation of caspase-3 and caspase-7 was measured using the VYBRANT FAM caspase-3 and -7 Assay Kit from Invitrogen (Carlsbad, Calif.) according to the manufacturers' instructions. Briefly, cells were resuspended in PBS and stained with a 150× dilution of the carboxyfluorescein (FAM)-labeled FMK-caspase inhibitor for 60 minutes at 37° C., 5% CO2. Then the cells were washed in wash buffer and fixed with 1% paraformaldehyde.

[2] = tested on: activated peripheral blood CD4+ T-lymphocytes; assay: Caspase activation (FITC-VAD-FMK staining, flow cytometry) in activated primary CD4+ T cells; assay type: cell-based, human; conditions: for inhibition of PCI-13/FasL-MV-induced apoptosis (caspase-VAD-FITC binding): CD4+, IRX-2 1:3 or IL-7, IL-15 100 ng/mL 24 hours, MV 15 μg 24 hours; for mean % of FITC-VAD-FMK+ cells ± SD: CD4+ cells, 24 hours pre-incubation (IRX-2 1:3, IL-2 100 IU/mL, IL-7/IL-15 10 ng/mL)
Description: as §1, §2, §3, §4

[3] = tested on: CD8+ Jurkat cells; assay type: cell-based; conditions: 24 hours pre-treatment (IRX-2 1:3; IL-7, IL-15 10 ng/mL), PCI-13/FasL-MV 15 μg 3 hours; no IRX-2 lane 50%
Experimental: as §2
Total cellular Caspase activity was tested by intracellular staining of activated caspases using a pan caspase inhibitor, CASPACE FITC-VAD-FMK In Situ Marker (Promega, Madison, Wis.). […] Then cells were stained for cell surface receptors, fixed with 1% paraformaldehyde and analyzed by flow cytometry. The specific activation of caspase-3 and caspase-7 was measured using the VYBRANT FAM caspase-3 and -7 Assay Kit from Invitrogen (Carlsbad, Calif.) according to the manufacturers' instructions. […]

[4] = tested on: caspase-3 and caspase-7; assay: Caspase-3/-7 activation (caspase 3/7-FAM flow cytometry, Western immunoblot) in CD8+ Jurkat cells; assay type: cell-based, human; conditions: IRX-2 1:3 24 hours pre-treatment; zVAD 20 μM; ZB4 10 μg/mL; MV 10 μg 3 hours
Experimental: To determine total or phosphorylated forms of Akt, Bcl-2, CD3ζ, caspase-3, JAK3, STAT5, FLIP, and Mcl-1, Jurkat CD8+ cells or purified activated CD8+ or CD4+ T-cells were co-incubated with MV at the indicated concentration and/or with IRX-2 (1:3 final dilution) for the indicated period of time at 37° C. The cells were then washed, centrifuged at 4° C. and lysed in equal volumes of ice-cold lysis-buffer (50 mM Tris-HCL pH 7.5, 150 mM NaCl, 0.5% Nonidet P-40) and protease inhibitor cocktail (Pierce Chemical Co., Rockford, Ill.). After lysis, the homogenates were clarified by centrifugation. The supernatants were isolated, and boiled for 5 minutes in 5× Laemmli sample buffer. […]
Total cellular Caspase activity was tested by intracellular staining of activated caspases using a pan caspase inhibitor, CASPACE FITC-VAD-FMK In Situ Marker (Promega, Madison, Wis.). […] Then cells were stained for cell surface receptors, fixed with 1% paraformaldehyde and analyzed by flow cytometry. The specific activation of caspase-3 and caspase-7 was measured using the VYBRANT FAM caspase-3 and -7 Assay Kit from Invitrogen (Carlsbad, Calif.) according to the manufacturers' instructions. […] The cells were analyzed by flow cytometry with the fluorescein measured on the FL1 channel. […]

[5] = tested on: CD8+ Jurkat cells; assay: Loss of mitochondrial membrane potential (JC-1) in CD8+ Jurkat cells; assay type: cell-based, human; conditions: IRX-2 1:3 24 hours pre-treatment, MV 10 μg 24 hours
Experimental: The loss of mitochondrial membrane potential (MMP) as a hallmark of apoptosis was measured using the MITOPROBE JC-1 Assay Kit from Invitrogen (Carlsbad, Calif.). The cationic dye JC-1 (5,5′, 6,6′-tetrachloro-1,1′, 3,3′-tetraethylbenzimidazolylcarbocyanine iodide) exists in healthy cells as a green monomer in the cytosol and also accumulates as red aggregates in the mitochondria. In apoptotic and necrotic cells, JC-1 remains only in the cytoplasm due to mitochondrial depolarization, which can be detected by flow cytometry as a decrease in the red/green fluorescence intensity ratio. CD8+ Jurkat cells or activated T lymphocytes were incubated in PBS containing 2 μM of JC-1 for 30 minutes at 37° C., 5% CO2. […] The cells were analyzed using a flow cytometer immediately after staining.
CD8+ Jurkat cells were analyzed by flow cytometry for a decrease in red fluorescence of the cationic dye JC-1, indicating a loss of MMP. Percentage of JC-1 red-negative cells were determined in cultures of CD8+ Jurkat cells after no treatment, 24 hours treatment with MV (10 μg) alone (no IRX) or pre-treated for 24 hours with IRX-2 (1:3 dilution) or MV in combination with the apoptosis-inhibitor Z-VAD-FMK (pan-caspase inhibitor; conc) or ZB4 (anti-Fas neutralizing mAb, conc/dose). […]

[6] = Table 2A MV-induced apoptosis, then 10 μg MV 24 hours
[7] = Table 2B CH-11 Ab-induced apoptosis, then 400 ng/mL CH-11 Ab 24 hours

Compound	inhibition of PCI-13/FasL-MV-induced apoptosis (caspase-VAD-FITC binding) [1]	mean % of FITC-VAD-FMK+ cells ± SD [1, 6] [%]	mean % of FITC-VAD-FMK+ cells ± SD [1, 7] [%]	inhibition of PCI-13/FasL-MV-induced apoptosis (caspase-VAD-FITC binding) [2]	mean % of FITC-VAD-FMK+ cells ± SD [2, 6] [%]	mean % of FITC-VAD-FMK+ cells ± SD [2, 7] [%]	apoptotic cells (activated caspase-VAD-FITC binding CD8+ Jurkat cells) [3]	MV-induced induction of caspase-3 and -7 activity (caspase-3/-7-FAM MFI) [4]	MV-induced loss of mitochondrial membrane potential (JC-1 red-negative cells) [5]
IL-7: human recombinant survival cytokine, purchased from Peprotech	similarly effective compared to IRX-2	49.5 ± 3.5	37.7 ± 1.4	similarly effective compared to IRX-2	34.5 ± 1.9	31.8 ± 10.6	neither IL-7 nor IL-15 alone was able to reduce the level of apoptosis below the control MV-induced level		
COC(=O)C[C@H](NC(=O)[C@H](C)NC(=O)[C@@H](NC(=O)OCc1ccccc1)C(C)C)C(=O)CF [zVAD] (Cbz-Val-Ala-Asp(OMe)-CH2F)								completely prevented	block was comparable to that provided by the two inhibitors
IL-15: human recombinant survival cytokine, purchased from Peprotech	similarly effective compared to IRX-2	16.8 ± 6.2	28.8 ± 3.1	similarly effective compared to IRX-2	16.7 ± 2.1	21.1 ± 5.3	neither IL-7 nor IL-15 alone was able to reduce the level of apoptosis below the control MV-induced level		
